Reference: patent US5834514A, “Halomethyl amides as IL-1β protease inhibitors” (Vertex Pharmaceuticals, Incorporated, priority 1996, dated 1998)

How the values were obtained:
IL-1β protease = biological target: T1, IL-1β protease (Homo sapiens, UniProt P29466); assay: In vitro IL-1β protease inhibition (HPLC, TRITC-AYVHDAPVRS-NH2 substrate); assay type: biochemical; details: 15 min preincubation, 60 min at 37° C., 67 μM substrate
T1 sequence (P29466 120-297 limits assumed): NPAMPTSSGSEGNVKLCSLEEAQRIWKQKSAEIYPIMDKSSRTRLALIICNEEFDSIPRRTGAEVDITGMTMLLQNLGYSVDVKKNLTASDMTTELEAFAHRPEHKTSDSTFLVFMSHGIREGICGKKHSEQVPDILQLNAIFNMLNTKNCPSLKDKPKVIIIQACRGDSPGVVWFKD
Protocol: Compounds of the present invention were tested for IL-1β protease inhibition activity according to the following protocols:
Partially purified IL-1β protease is stored at -80° C., thawed on ice, and preincubated for 10 minutes at 37° C. with 2.5 mM dithiothreitol in a buffer solution containing 10 mM Tris-HCl (pH 8.0) and 25% (v/w) glycerol. Inhibitors are prepared as stock solutions in dimethyl sulfoxide (DMSO). The protease is preincubated with inhibitor in a volume of 20 μL in a 1.5 mL polypropylene microcentrifuge tube for 15 minutes at 37° C. The volume of compound added to the assay is adjusted to yield a DMSO concentration in the preincubation of <15% (v/v). The enzyme assay is then initiated by the addition of substrate (TRITC-AYVHDAPVRS-NH2) (SEQ I.D. No. 1) [drawing 5] to yield a final concentration of 67 μM in a final volume of 30 μL. The reaction are carried out for 60 minutes at 37° C. in the dark and are terminated by the addition of […] (TFA). Following the addition of 115 μL of 0.1 % TFA, the samples are analyzed by high pressure liquid chromatography using a reverse phase (C18) column and elution with an acetonitrile/water/TFA gradient. Substrate and product are monitored by their absorbance at 550 nm and elute at 4.2 and 5.2 minutes, respectively.

[1] = tested on: release of mature IL-1β, human monocytes; assay: "In vivo" human monocyte pulse chase assay, inhibition of release of mature IL-1β; assay type: cell-based; details: fixed S. aureus stimulation, 2-3 donors
Protocol: In vivo inhibition (IC50) was determined as follows:
Human monocytes were isolated from heparinized leukopheresis units obtained through Biological Specialty Corporation (Lansdale, Pa.). Monocytes were purified by Ficoll-Hupaque (Pharmacia Fine Chemicals, Piscataway, N.J.) gradient centrifugation and more than 95% pure monocyte populations obtained by centrifugal elutriation. The assay was performed on duplicate samples of freshly isolated human monocytes, cultured in suspension at 37° C. and rotated gently in conical bottom polypropylene tubes (Sardstedt Inc., Princeton, N.J.). Human monocytes at a concentration of 5×10^6 cells/mL were resuspended in 1 mL of RPMI 1640 (a common tissue buffer from M.A. Bioproducts, Walkersville, Md.) containing 1% fetal calf serum (FCS) (HyClone, Logan, Utah) and 50 μg/mL gentamycin (Gibco, Grand Island, N.Y.). The cells were treated either with a compound of the invention (i.e. test compound) or with a non-inhibitor (control compound, typically 0.03% DMSO) for 15 minutes and then activated with 0.01% fixed Staphylococcus aureus (The Enzyme Center, Malden, Mass.) for 1 hour. […]
In the monocyte pulse chase assay, each test parameter was run in duplicate. […] When test compounds were evaluated, the percent inhibition of release of mature IL-1β was calculated as follows: […]

colon = details: ulcerative colitis model; cited from earlier work
rats = details: PG-APS model of arthritis in rats; cited from earlier work
[2] = tested on: Patients with Rheumatoid Arthritis; details: small open-label human trial; cited from earlier work
[3] = tested on: chronic myelogenous leukemia cells; details: cells removed from leukemia patients (CML); cited from earlier work
[4] = tested on: Acute Myelogenous Leukemia Blast; details: AML; cited from earlier work

Molecule | IC50 (IL-1β protease) | IC50 [1] | tissue necrosis and number of inflammatory cells in the colon (colon) | joint swelling (rats) | efficacy in Rheumatoid Arthritis trial [2] | inhibition of colony growth [3] | inhibition of Acute Myelogenous Leukemia Blast Proliferation [4]
C=CCN(Cc1ccc(Cl)cc1Cl)C(=O)CCl [Example 1] | ≤ 1 µM | < 10 µM |  |  |  |  | 
IL-1 ra: naturally occurring IL-1β receptor antagonist |  |  | reduced tissue necrosis and the number of inflammatory cells in the colon | supresses joint swelling | shows efficacy | inhibit colony growth | Inhibition of Acute Myelogenous Leukemia Blast Proliferation
